SMILES strings stand for the structures. Like-named read-outs stand apart in the source and are kept apart here.

In experiment [1] the test system is TNFα and IL8 production in THP-1 cells. In words: LPS induced cytokine (TNFα and IL8) production assay in THP-1 cells. The note with it: Homo sapiens, 300 ng/mL LPS. Type of experiment: cell-based. As to the method: Provided compounds were also assayed in an LPS (Lipopolysacharide) or R848 (TLR-7 agonist) induced cytokine (TNFα and IL8) production assay in THP-1 cells, human white blood cells (hWBC), and whole blood. The exemplary protocol for this assay in THP-1 cells was as follows below.
THP-1 cells from ATCC (TIB-202) were cultured in RPMI Medium 1640 (Invitrogen, Cat No. A10491-01), 10% fetal bovine serum (Invitrogen, Cat No. 10099141, Lot No. 8172882) containing 100 U/mL Penicillin, 100 μg/mL streptomycin (Invitrogen, Cat No. 15140-122), and 50 uM 2-Mercaptoethanol (Invitrogen, Cat No. 21985023). LPS-EK ultra pure (Invivogen, Cat No. tlrl-peklps) was used to induce IL8 and TNFα production, that was detected in the cell culture supernatant by IL8 HTRF kit (Cisbio, Cat No. 62IL8PEB) and TNFα HTRF kit (Cisbio, Cat No. 62TNFPEB), as per manufacturer instructions. Cells were cultured in 96 well assay plates at 100,000 cells per well, and compounds diluted in final 0.3% DMSO were pre-incubated with cells for 1 hour prior to stimulation with 300 ng/mL LPS. Cytokine production in cell supernatant was measured at 5 hours for TNFα and IL8 production, and for 16 hours for IL8 production and assessment of cell viability.
The compound numbers correspond to the compound numbers in Table 1. […] “NA” stands for “not assayed.”

For another experiment, the target named is T1, IRAK4 (Homo sapiens, UniProt Q9NWZ3).
T1 construct: purchased CARNA Bioscience 09-145
T1 sequence (Q9NWZ3 1-460): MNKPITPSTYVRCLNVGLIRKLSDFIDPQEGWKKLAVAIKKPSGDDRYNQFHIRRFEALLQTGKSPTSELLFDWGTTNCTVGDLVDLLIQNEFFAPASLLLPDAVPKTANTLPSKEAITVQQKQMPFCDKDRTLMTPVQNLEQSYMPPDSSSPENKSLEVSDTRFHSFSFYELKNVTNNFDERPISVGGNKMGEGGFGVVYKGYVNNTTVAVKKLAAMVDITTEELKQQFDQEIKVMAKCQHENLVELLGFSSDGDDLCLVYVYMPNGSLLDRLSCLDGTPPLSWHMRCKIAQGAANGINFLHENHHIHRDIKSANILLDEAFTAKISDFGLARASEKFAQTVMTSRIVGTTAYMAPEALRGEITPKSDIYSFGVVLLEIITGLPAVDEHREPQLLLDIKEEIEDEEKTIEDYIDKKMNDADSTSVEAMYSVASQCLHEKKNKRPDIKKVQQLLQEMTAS
In words: IRAK-4 activity inhibition assay (Caliper). Type of experiment: biochemical. The note with it: 3.5 nM IRAK4, 37 μM ATP, 1.5 μM Peptide 8. How it is done:
A 1× kinase base buffer was prepared from 50 mM HEPES, pH 7.5 and 0.0015% Brij-35. A stop buffer was prepared from 100 mM HEPES, pH 7.5, 0.015% Brij-35, 0.2% Coating Reagent #3, and 50 mM EDTA.
Test compound was diluted to 50× of the final desired highest inhibitor concentration in reaction by 100% DMSO. 100 ul of this compound dilution was transferred to a well in a 96-well plate. For example, if desired highest inhibitor concentration in IC50 determination is 100 uM, then prepare 5000 uM of compound DMSO solution in this step.
Test compound was serially diluted by transferring 30 μl to 60 μl of 100% DMSO in the next well and so forth for a total of 10 concentrations. 100 μl of 100% DMSO was added to two empty wells for no compound control and no enzyme control in the same 96-well plate.
A new 96-well plate was marked as intermediate plate. 5 μl of compound serial dilution was transferred from source plate to the corresponding wells of the intermediate plate. 45 μl of 1× kinase base buffer (KB buffer) was added to each well of the intermediate plate. The intermediate plate was placed for 10 min on a shaker.
5 μl of each well was transferred from the 96-well intermediate plate to a 384-well plate in duplicates. For example, A1 of the 96-well plate is transferred to A1 and A2 of the 384-well plate. A2 of the 96-well plate is transferred to A3 and A4 of the 384-well plate, and so on.
IRAK4 and DTT in 1× kinase base buffer was added. The 2.5× enzyme mix contained 8.8 nM IRAK4 and 5 mM DTT.
Peptide 8, ATP, MgCl2 and MnCl2 were added in the 1× kinase base buffer. The 2.5× peptide mix contained 3.75 μM peptide 8, 92.5 μM ATP, 12.5 mM MgCl2 and 2.5 mM MnCl2.
Assay plate already contained 5 μl of compound in 10% DMSO. Added 10 μl of 2.5× enzyme solution to each well of the 384-well assay plate, except no enzyme control wells. The final concentration of IRAK4 in reaction was 3.5 nM. Added 10 μl of 1× kinase base buffer to no enzyme control wells in the assay plate. Incubated at room temperature for 10 min.
Added 10 μl of 2.5× peptide solution to each well of the 384-well assay plate. The final concentration of Peptide 8 and ATP was 1.5 μM and 37 μM, respectively. Incubated at 28° C. for 40 minutes. Added 25 μl of stop buffer to stop reaction. Collected data on Caliper.
Copied conversion % data from Caliper program. Converted conversion % values to percent inhibition values. Percent inhibition=(max-conversion %)/(max-min)*100, where “max” means the conversion % of DMSO control and “min” means the conversion % of no enzyme control.
The compound numbers correspond to the compound numbers in Table 1. Compounds having an activity designated as “A” provided an IC50≦1 μM; compounds having an activity designated as “B” provided an IC50 of 1-5 μM; compounds having an activity designated as “C” provided an IC50 of ≧5 μM. “NA” stands for “not assayed.”

[2] abbreviates: 5 hours, read-out: TNFα production IC50.
[3] abbreviates: 16 hours, read-out: IL8 (16 h) production IC50.

Consider `CCc1nc2c(N[C@H]3CC[C@H](N4CCOCC4)CC3)nc(Nc3cnn(CC)c3)nc2s1` [Compound I-22, 2-ethyl-N5-(1-ethyl-1H-pyrazol-4-yl)-N7-((1r,4r)-4-morpholino-cyclohexyl)thiazolo[5,4-d]pyrimidine-5,7-diamine], for which the IC50 is 250 to 500 nM in experiment [1] (setting [2]), not above 250 nM in experiment [1] (setting [3]) and not above 1000 nM on IRAK4.
The like results for `CCc1nc2c(N[C@H]3CC[C@H](N4CCOCC4)CC3)nc(Nc3cnn(C4CCC(O)CC4)c3)nc2s1` (some centres unmarked) [Compound I-32, 4-(4-((2-ethyl-7-(((1r,4r)-4-morpholinocyclohexyl)-amino)thiazolo[5,4-d]pyrimidin-5-yl)amino)-1H-pyrazol-1-yl)cyclohexan-1-ol] were, in that order, not above 250 nM, not above 250 nM and not above 1000 nM.
For `CCc1nc2c(O[C@H]3CC[C@H](N4CCOCC4)CC3)nc(Nc3cnn(C4CCOCC4)c3)nc2s1` [Compound I-26, 2-ethyl-7-(((1r,4r)-4-morpholinocyclohexyl)oxy)-N-(1-(tetrahydro-2H-pyran-4-yl)-1H-pyrazol-4-yl)thiazolo[5,4-d]pyrimidin-5-amine], in that order: not above 250 nM, not above 250 nM and not above 1000 nM.
For `CCc1nc2c(N[C@H]3CC[C@H](N4CCC5(CC4)CC5)CC3)nc(Nc3cnn(C)c3)nc2s1` [Compound I-21, N7((1r,4r)-4-(6-azaspiro[2.5]octan-6-yl)cyclohexyl)-2-ethyl-N5-(1-methyl-1H-pyrazol-4-yl)thiazolo[5,4-d]pyrimidine-5,7-diamine], in that order: not above 250 nM, not above 250 nM and not above 1000 nM.
With `CC(O)c1nc2c(N[C@H]3CC[C@H](N4CCOCC4)CC3)nc(Nc3cnn(C)c3)nc2s1` (some centres unmarked) [Compound I-35, 1-(5-((1-methyl-1H-pyrazol-4-yl)amino)-7-(((1r,4r)-4-morpholino-cyclohexyl)amino)thiazolo[5,4-d]pyrimidin-2-yl)ethan-1-ol], the IC50 is not below 500 nM in experiment [1] (setting [2]), not below 500 nM in experiment [1] (setting [3]) and not above 1000 nM against IRAK4.
For the compound `CCc1nc2c(N[C@H]3CC[C@H](N4CCC(O)CC4)CC3)nc(Nc3cnn(C4CCOCC4)c3)nc2s1` [Compound I-16], the IC50 in experiment [1] (setting [2]) is not above 250 nM; against IRAK4, not above 1000 nM.
Turning to `Cc1nc2c(N[C@H]3CC[C@H](N4CCC5(CC4)CC5)CC3)nc(Nc3cnn(C)c3)nc2s1` [Compound I-39, N7-((1r,4r)-4-(6-azaspiro[2.5]octan-6-yl)cyclohexyl)-2-methyl-N5-(1-methyl-1H-pyrazol-4-yl)thiazolo[5,4-d]pyrimidine-5,7-diamine], the half-maximal inhibitory concentration (IC50) in experiment [1] (setting [2]) was 250 to 500 nM; in experiment [1] (setting [3]), 250 to 500 nM; against IRAK4, not above 1000 nM.
For `CCc1nc2c(N[C@H]3CC[C@H](N4CCOCC4)CC3)nc(Nc3cnn(C(C)C)c3)nc2s1` [Compound I-8, 2-ethyl-N5-(1-isopropyl-1H-pyrazol-4-yl)-N7-((1r,4r)-4-morpholinocyclohexyl)thiazolo[5,4-d]pyrimidine-5,7-diamine], the IC50 is not above 250 nM in experiment [1] (setting [2]), not above 250 nM in experiment [1] (setting [3]) and not above 1000 nM against IRAK4.
Take `CCc1nc2c(N[C@H]3CC[C@H](N4CCOCC4)CC3)nc(Nc3cnn(CCCS(C)(=O)=O)c3)nc2s1` [Compound I-27, 2-ethyl-N5-(1-(3-(methylsulfonyl)propyl)-1H-pyrazol-4-yl)-N7-((1r,4r)-4-morpholinocyclohexyl)thiazolo[5,4-d]pyrimidine-5,7-diamine]: the figures for the IC50 (in experiment [1] (setting [2]); in experiment [1] (setting [3]); on IRAK4) were 250 to 500 nM, not above 250 nM and not above 1000 nM, respectively.
The like results for `CCc1nc2c(N[C@H]3CC[C@H](N4CCC5(CC4)COC5)CC3)nc(Nc3cnn(C4CCOCC4)c3)nc2s1` [Compound I-14, N7-((1r,4r)-4-(2-oxa-7-azaspiro[3.5]nonan-7-yl)cyclohexyl)-2-ethyl-N5-(1-(tetrahydro-2H-pyran-4-yl)-1H-pyrazol-4-yl)thiazolo[5,4-d]pyrimidine-5,7-diamine] were, in that order, not above 250 nM, not above 250 nM and not above 1000 nM.
For `CCc1nc2c(N[C@H]3CC[C@H](N4CCOCC4)CC3)nc(Nc3cnn(CC4CCOCC4)c3)nc2s1` [Compound I-18, 2-ethyl-N7-((1r,4r)-4-morpholinocyclohexyl)-N5-(1-((tetrahydro-2H-pyran-4-yl)methyl)-1H-pyrazol-4-yl)thiazolo[5,4-d]pyrimidine-5,7-diamine], in that order: not above 250 nM, not above 250 nM and not above 1000 nM.
For `CCc1nc2c(N[C@H]3CC[C@@H](N4CCC(F)(F)CC4)CC3)nc(Nc3cnn(C)c3)nc2s1` [Compound I-12, N7-((1s,4s)-4-(4,4-difluoropiperidin-1-yl)cyclohexyl)-2-ethyl-N5-(1-methyl-4H-pyrazol-4-yl)thiazolo[5,4-d]pyrimidine-5,7-diamine], in that order: 250 to 500 nM, 250 to 500 nM and not above 1000 nM.
Regarding `CCn1cc(Nc2nc(N[C@H]3CC[C@H](N4CCOCC4)CC3)c3nc(C)sc3n2)cn1` [Compound I-36, N5-(1-ethyl-1H-pyrazol-4-yl)-2-methyl-N7-((1r,4r)-4-morpholinocyclohexyl)thiazolo[5,4-d]pyrimidine-5,7-diamine], the IC50 was 250 to 500 nM in experiment [1] (setting [2]), not above 250 nM in experiment [1] (setting [3]) and not above 1000 nM on IRAK4.
For `CCc1nc2c(N[C@H]3CC[C@H](N4CCOCC4)CC3)nc(Nc3cnn(CCO)c3)nc2s1` [Compound I-29, 2-(4-((2-ethyl-7-(((1r,4r)-4-morpholinocyclohexyl)-amino)thiazolo[5,4-d]pyrimidin-5-yl)amino)-1H-pyrazol-1-yl)ethan-1-ol], in that order: not below 500 nM, not above 250 nM and not above 1000 nM.
The like results for `CCc1nc2c(N[C@H]3CC[C@H](N4CCC5(CC4)CC5)CC3)nc(Nc3cnn(CCOCCO)c3)nc2s1` [Compound I-33, 2-(2-(4-((7-(((1r,4r)-4-(6-azaspiro[2.5]octan-6-yl)cyclohexyl)-amino)-2-ethylthiazolo[5,4-d]pyrimidin-5-yl)amino)-1H-pyrazol-1-yl)ethoxy)ethan-1-ol] were, in that order, not above 250 nM, not above 250 nM and not above 1000 nM.

In general, IC50 refers to the midpoint of a concentration-inhibition curve.

The record behind these values is patent publication US9518065B2, “IRAK inhibitors and uses thereof” (NIMBUS IRIS, INC., priority 2013, dated 2016).
